Experimental data: patent US11180504B2 (ORCHID PHARMA LTD., priority 2016, dated 2021)
≈ marks a conversion by molar mass, not a printed value. Like-named read-outs stand apart in the source and are kept apart here.

Tests used:
[1] = tested on: methicillin-sensitive Staphylococcus aureus; experiment: MIC by broth micro-dilution (CLSI), methicillin-sensitive S. aureus; type: cell-based; settings: MSSA S. aureus ATCC29213
[2] = tested on: carbapenem sensitive Escherichia coli; experiment: MIC by broth micro-dilution (CLSI), carbapenem sensitive E. coli; type: cell-based
[3] = tested on: carbapenem sensitive Pseudomonas aeruginosa; experiment: MIC by broth micro-dilution (CLSI), carbapenem sensitive P. aeruginosa; type: cell-based
[4] = tested on: carbapenemase producing K. pneumoniae; experiment: MIC by broth micro-dilution (CLSI), carbapenemase producing K. pneumoniae; type: cell-based, Klebsiella pneumoniae
[5] = Staphylococcus aureus, ATCC 29213 / MSSA, read-out: MIC
[6] = Escherichia coli, ATCC25922, ESBL −ve E. coli ATCC25922, read-out: MIC
[7] = Pseudomonas aeruginosa, ATCC27853, Meropenem susceptible P. aeruginosa ATCC27853, read-out: MIC
[8] = Klebsiella pneumoniae, ATCCBAA1705, KPC-2 K. pneumoniae ATCC BAA-1705, read-out: MIC
[9] = KPC-2 K. pneumoniae ATCC BAA-1705

Row | MIC [1, 5] | MIC [2, 6] | MIC [3, 7] | MIC [4, 8] | MIC [4, 9] | MIC [1] | MIC ([2]; ESBL −ve E. coli ATCC25922) | MIC ([3]; Meropenem susceptible P. aeruginosa ATCC27853) | Structure (SMILES) | MIC ([4]; Klebsiella pneumoniae, ATCCBAA1705)
1 | 4 µg/mL (≈ 7.51 µM) | 0.25 µg/mL (≈ 0.469 µM) | 128 µg/mL (≈ 240 µM) | 2 µg/mL (≈ 3.75 µM) |  |  |  |  | C[C@@H](NC(=O)Cn1nnnc1C1CC1)[C@H]1C(=O)N2C(C(=O)O)=C(S[C@@H]3CN[C@H](C(=O)N(C)C)C3)[C@H](C)[C@H]12 [Example 378] | 
2 | 16 µg/mL (≈ 30.3 µM) | 0.5 µg/mL (≈ 0.946 µM) | > 128 µg/mL |  | 16 µg/mL (≈ 30.3 µM) |  |  |  | C[C@@H](NS(=O)(=O)Cn1cnnn1)[C@H]1C(=O)N2C(C(=O)O)=C(S[C@@H]3CN[C@H](C(=O)N(C)C)C3)[C@H](C)[C@H]12 [Example 379, (4R,5S,6S)-6-((R)-1-((1H-tetrazol-1-yl)methylsulfonamido)ethyl)-3-((3S,5S)-5-(dimethylcarbamoyl)pyrrolidin-3-ylthio)-4-methyl-7-oxo-1-azabicyclo[3.2.0]hept-2-ene-2-carboxcylic acid] | 
3 | 32 µg/mL (≈ 56.2 µM) | 1 µg/mL (≈ 1.76 µM) | 32 µg/mL (≈ 56.2 µM) | 8 µg/mL (≈ 14 µM) |  |  |  |  | C[C@@H](NS(=O)(=O)Cn1cnnn1)[C@H]1C(=O)N2C(C(=O)O)=C(S[C@@H]3CN[C@H](C(=O)N4CC[C@@H](N)C4)C3)[C@H](C)[C@H]12 [Example 380, (4R,5S,6S)-6-((R)-1-((1H-tetrazol-1-yl)methylsulfonamido)ethyl)-3-((3S,5S)-5-((R)-3-aminopyrrolidine-1-carbonyl)pyrrolidin-3-ylthio)-4-methyl-7-oxo-1-azabicyclo[3.2.0]hept-2-ene-2-carboxylic acid] | 
4 | 16 µg/mL (≈ 28.1 µM) | 1 µg/mL (≈ 1.76 µM) | 128 µg/mL (≈ 225 µM) | 4 µg/mL (≈ 7.02 µM) |  |  |  |  | C[C@@H](NS(=O)(=O)Cn1ncnn1)[C@H]1C(=O)N2C(C(=O)O)=C(S[C@@H]3CN[C@H](C(=O)N4CC[C@@H](N)C4)C3)[C@H](C)[C@H]12 [Example 382, (4R,5S,6S)-6-((R)-1-((2H-tetrazol-2-yl)methylsulfonamido)ethyl)-3-((3S,5S)-5-((R)-3-aminopyrroldine-1-carbonyl)pyrrolidin-3-ylthio)-4-methyl-7-oxo-1-azabicyclo[3.2.0]hept-2-ene-2-carboxylic acid] | 
5 | 4 µg/mL (≈ 7.47 µM) | 0.25 µg/mL (≈ 0.467 µM) | > 128 µg/mL | 4 µg/mL (≈ 7.47 µM) |  |  |  |  | C[C@@H](NC(=O)Cn1nnnc1N(C)C)[C@H]1C(=O)N2C(C(=O)O)=C(S[C@@H]3CN[C@H](C(=O)N(C)C)C3)[C@H](C)[C@H]12 [Example 383, (4R,5S,6R)-6-((R)-1-(2-(5-(dimethylamino)-1H-tetrazol-1-yl)acetamido)ethyl)-3-((3S,5S)-5-(dimethylcarbamoyl)pyrrolidin-3-ylthio)-4-methyl-7-oxo-1-azabicyclo[3.2.0]hept-2-ene-2-carboxylic acid] | 
6 | 4 µg/mL (≈ 6.94 µM) | 0.5 µg/mL (≈ 0.867 µM) | 64 µg/mL (≈ 111 µM) | 4 µg/mL (≈ 6.94 µM) |  |  |  |  | C[C@@H](NC(=O)Cn1nnnc1N(C)C)[C@H]1C(=O)N2C(C(=O)O)=C(S[C@@H]3CN[C@H](C(=O)N4CC[C@@H](N)C4)C3)[C@H](C)[C@H]12 [Example 384, (4R,5S,6R)-3-((3S,5S)-5-((R)-3-aminopyrrolidine-1-carbonyl)pyrrolidin-3-ylthio)-6-((R)-1-(2-(5-(dimethylamino)-1H-tetrazol-1-yl)acetamido)ethyl)-4-methyl-7-oxo-1-azabicyclo[3.2.0]hept-2-ene-2-carboxylic acid] | 
7 | 4 µg/mL (≈ 7.65 µM) | 0.25 µg/mL (≈ 0.478 µM) | 64 µg/mL (≈ 122 µM) | 2 µg/mL (≈ 3.83 µM) |  |  |  |  | COc1nnnn1CC(=O)N[C@H](C)[C@H]1C(=O)N2C(C(=O)O)=C(S[C@@H]3CN[C@H](C(=O)N(C)C)C3)[C@H](C)[C@H]12 [Example 385, (4R,5S,6R)-3-((3S,5S)-5-(dimethylcarbamoyl)pyrrolidin-3-ylthio)-6-((R)-1-(2-(5-methoxy-1H-tetrazol-1-yl)acetamido)ethyl)-4-methyl-7-oxo-1-azabicyclo[3.2.0]hept-2-ene-2-carboxylic acid] | 
8 | 2 µg/mL (≈ 3.55 µM) | 0.125 µg/mL (≈ 0.222 µM) | 8 µg/mL (≈ 14.2 µM) | 8 µg/mL (≈ 14.2 µM) |  |  |  |  | COc1nnnn1CC(=O)N[C@H](C)[C@H]1C(=O)N2C(C(=O)O)=C(S[C@@H]3CN[C@H](C(=O)N4CC[C@@H](N)C4)C3)[C@H](C)[C@H]12 [Example 386, (4R,5S,6R)-3-((3S,5S)-5-((R)-3-aminopyrrolidine-1-carbooyl)pyrrolidin-3-ylthio)-6-((R)-1-(2-(5-methoxy-1H-tetrazol-1-yl)acetamido)ethyl)-4-methyl-7-oxo-1-azabicyclo[3.2.0]hept-2-ene-2-carboxylic acid] | 
9 | 8 µg/mL (≈ 15.4 µM) | 0.25 µg/mL (≈ 0.481 µM) | 32 µg/mL (≈ 61.6 µM) | 8 µg/mL (≈ 15.4 µM) |  |  |  |  | C[C@@H](NC(=O)Cn1cnnn1)[C@H]1C(=O)N2C(C(=O)O)=C(SC3CN(C(=O)[C@@H]4C[C@H](N)CN4)C3)[C@H](C)[C@H]12 [Example 387] | 
10 | 8 µg/mL (≈ 15.8 µM) | 2 µg/mL (≈ 3.94 µM) | > 128 µg/mL | 8 µg/mL (≈ 15.8 µM) |  |  |  |  | C[C@@H](NC(=O)C(N)C(F)(F)F)[C@H]1C(=O)N2C(C(=O)O)=C(S[C@@H]3CN[C@H](C(=O)N(C)C)C3)[C@H](C)[C@H]12 (stereo partly drawn) [Example 388] | 
11 |  |  |  |  | 4 µg/mL (≈ 7.88 µM) | 8 µg/mL (≈ 15.8 µM) | 1 µg/mL (≈ 1.97 µM) | >128 µg/mL | C[C@@H](NC(=O)C(N)C(F)(F)F)[C@H]1C(=O)N2C(C(=O)O)=C(S[C@@H]3CN[C@H](C(=O)N(C)C)C3)[C@H](C)[C@H]12 (stereo partly drawn) [Example 389, (4R,5S,6R)-6-((1R)-(2-amino-3,3,3-trifluoropropanamido)ethyl)-3-((3S,5S)-5-(dimethylcarbamoyl)pyrrolidin-3-ylthio)-4-methyl-7-oxo-1-azabicyclo[3.2.0]hept-2-ene-2-carboxylic acid] | 
12 | 4 µg/mL (≈ 6.79 µM) | 1 µg/mL (≈ 1.7 µM) | 128 µg/mL (≈ 217 µM) | 16 µg/mL (≈ 27.2 µM) |  |  |  |  | C[C@@H](NC(=O)CN1CCn2nnnc2C1)[C@H]1C(=O)N2C(C(=O)O)=C(S[C@@H]3CN[C@H](C(=O)N4CC[C@@H](N)C4)C3)[C@H](C)[C@H]12 [Example 390, (4R,5S,6R)-3-((3S,5S)-5-((R)-3-aminopyrrolidine-1-carbonyl)pyrrolidin-3-ylthio)-6-((R)-1-(2-(5,6-dihydrotetrazolo[1,5-a]pyrazin-7(8H)-yl)acetamido)ethyl)-4-methyl-7-oxo-1-azabicyclo[3.2.0]hept-2-ene-2-carboxylic acid] | 
13 | 1 µg/mL (≈ 1.92 µM) | 0.5 µg/mL (≈ 0.962 µM) | 4 µg/mL (≈ 7.7 µM) | 0.5 µg/mL (≈ 0.962 µM) |  |  |  |  | C[C@@H](NC(=O)Cn1cnnn1)[C@H]1C(=O)N2C(C(=O)O)=C(S[C@@H]3CN[C@H](CN4CC[C@@H](N)C4)C3)[C@H](C)[C@H]12 [Example 391] | 
14 | 4 µg/mL (≈ 7.88 µM) | 1 µg/mL (≈ 1.97 µM) | 64 µg/mL (≈ 126 µM) | 4 µg/mL (≈ 7.88 µM) |  |  |  |  | C[C@@H](NC(=O)Cn1nnnc1N)[C@H]1C(=O)N2C(C(=O)O)=C(S[C@@H]3CN[C@H](C(=O)N(C)C)C3)[C@H](C)[C@H]12 [Example 392, (4R,5S,6R)-6-((R)-1-(2-(5-amino-1H-tetrazol-1-yl)acetamido)ethyl)-3-((3S,5S)-5-(dimethylcarbamoyl)pyrrolidin-3-ylthio)-4-methyl-7-oxo-1-azabicyclo[3.2.0]hept-2-ene-2-carboxylic acid] | 
15 | 4 µg/mL (≈ 7.48 µM) | 0.125 µg/mL (≈ 0.234 µM) | 8 µg/mL (≈ 15 µM) | 1 µg/mL (≈ 1.87 µM) |  |  |  |  | C[C@@H](NC(=O)Cn1cnnn1)[C@H]1C(=O)N2C(C(=O)O)=C(S[C@@H]3CN[C@H](C(=O)N4CC[C@@H](O)C4)C3)[C@H](C)[C@H]12 [Example 393, (4R,5S,6R)-6-((R)-1-(2-(1H-tetrazol-1-yl)acetamido)ethyl)-3-((3S,5S)-5-((R)-3-hydroxypyrrolidine-1-carbonyl)pyrrolidin-3-ylthio)-4-methyl-7-oxo-1-azabicyclo[3.2.0]hept-2-ene-2-carboxylic acid] | 
16 | 8 µg/mL (≈ 13.3 µM) | 2 µg/mL (≈ 3.32 µM) | 128 µg/mL (≈ 213 µM) | 32 µg/mL (≈ 53.2 µM) |  |  |  |  | C[C@@H](NC(=O)Cc1nnc(C(F)(F)F)o1)[C@H]1C(=O)N2C(C(=O)O)=C(S[C@@H]3CN[C@H](C(=O)N4CC[C@@H](N)C4)C3)[C@H](C)[C@H]12 [Example 394, (4R,5S,6R)-3-((3S,5S)-5-((R)-3-aminopyrrolidine-1-carbonyl)pyrrolidin-3-ylthio)-4-methyl-7-oxo-6-((R)-1-(2-(5-(trifluoromethyl)-1,3,4-oxadiazol-2-yl)acetamido)ethyl)-1-azabicyclo[3.2.0]hept-2-ene-2-carboxylic acid] | 
17 | 2 µg/mL (≈ 3.39 µM) | 0.125 µg/mL (≈ 0.212 µM) | 1 µg/mL (≈ 1.69 µM) | 1 µg/mL (≈ 1.69 µM) |  |  |  |  | C[C@@H](NC(=O)Cn1cnnn1)[C@H]1C(=O)N2C(C(=O)O)=C(S[C@@H]3CN[C@H](C(=O)N4CCN(C(=O)CN)CC4)C3)[C@H](C)[C@H]12 [Example 395, (4R,5S,6R)-6-((R)-1-(2-(1H-tetrazol-1-yl)acetamido)ethyl)-3-((3S,5S)-5-(4-(2-aminoacetyl)piperazine-1-carbonyl)pyrrolidin-3-ylthio)-4-methyl-7-oxo-1-azabicyclo[3.2.0]hept-2-ene-2-carboxylic acid] | 

Row | Structure (SMILES) | MIC [1, 5] | MIC [2, 6] | MIC [3, 7] | MIC [4, 8] | MIC [4, 9] | MIC [1] | MIC ([2]; ESBL −ve E. coli ATCC25922) | MIC ([3]; Meropenem susceptible P. aeruginosa ATCC27853) | MIC ([4]; Klebsiella pneumoniae, ATCCBAA1705)
18 | C[C@@H](NC(=O)Cn1cnnn1)[C@H]1C(=O)N2C(C(=O)O)=C(S[C@@H]3CN[C@H](C(=O)N4C5CCC4CC4(CCNC4)C5)C3)[C@H](C)[C@H]12 (stereo partly drawn) [Example 377, (4R,5S,6R)-6-((R)-1-(2-(1H-tetrazol-1-yl)acetamido)ethyl)-3-((3S,5S)-5-(8-azaspiro[bicyclo[3.2.1]octane-3,3′-pyrrolidine]-8-ylcarbonyl)pyrrolidin-3-ylthio)-4-methyl-7-oxo-1-azabicyclo[3.2.0]hept-2-ene-2-carboxylic acid] | 4 µg/mL (≈ 6.52 µM) | 0.25 µg/mL (≈ 0.407 µM) | 8 µg/mL (≈ 13 µM) |  |  |  |  |  | 2 µg/mL (≈ 3.26 µM)
